Measurements: paper PMC11770630 (Journal of Medicinal Chemistry, 2025)

How the values were obtained:
HCT116 cells [1] = details: 24 h, safety limit cell viability >80%; for Cell viability (MTT), safety at 1 μM: HCT116, 1 μM; for Cell viability (MTT), safety above 5 μM: HCT116, 5 and 10 μM
MERLIN-HCT116 cells = test: MERLIN BRET biosensor assay of mitochondria-ER distance; assay type: cell-based, human
[2] = system: control and sALS lymphoblasts; test: Cholesteryl-esters determination; assay type: cell-based, human; details: control or sALS lymphoblasts, 5 μM for 24 h
HCT116 cells [3] = test: Extracellular NBD-cholesterol uptake in HCT116 cells; assay type: cell-based, human; details: HCT116, 5 μM, after 3 h
[4] = system: lymphoblasts from sporadic ALS patients; test: Electron microscopy of lymphoblast cells; assay type: cell-based, human; details: 5 μM for 24 h
[5] = system: control and sALS lymphoblasts; test: Quantification of lipid droplets; assay type: cell-based, human; details: control or sALS lymphoblasts, 5 μM for 24 h
sALS lymphoblasts = test: Mitochondrial oxygen consumption rate; assay type: cell-based, human; details: 5 μM, 24 h
[6] = system: ALS patient-derived lymphoblastic cell lines; test: Extracellular NBD-cholesterol uptake in patient lymphoblastic cell lines; assay type: cell-based, human; details: SOD1-ALS lymphoblastoid cell lines, 5 μM, 24 h, NBD-cholesterol 1 h

| Compound | Cell viability (MTT), safety at 1 μM (HCT116 cells [1]) | Cell viability (MTT), safety above 5 μM (HCT116 cells [1]) | BBB passive permeation (PAMPA) | also measured |
| --- | --- | --- | --- | --- |
| O=C(Nc1ccc([N+](=O)[O-])cc1F)c1cc(Cl)ccc1O [Compound 2, 5-Chloro-N-(2-fluoro-4-nitrophenyl)-2-hydroxybenzamide] | safe | – | – | – |
| O=C(Nc1cccc([N+](=O)[O-])c1)c1cc(Cl)ccc1O [Compound 29, 5-Chloro-2-hydroxy-N-(3-nitrophenyl)benzamide] | safe | cellular safety above 5 μM | demonstrated the capability to cross the BBB through passive permeation | – |
| O=C(Nc1ccc([N+](=O)[O-])cc1Cl)c1cc(Cl)ccc1O [Compound 1, 5-Chloro-N-(2-chloro-4-nitrophenyl)-2-hydroxybenzamide, reference compound] | – | – | – | EC50 (MERLIN-HCT116 cells; Homo sapiens, read-out: EC50 (BRET), HTS hit): 8.36 µM |
| O=C(Nc1ccc([N+](=O)[O-])cc1)c1cc(Cl)ccc1O [Compound 25, 5-Chloro-2-hydroxy-N-(4-nitrophenyl)benzamide] | – | – | demonstrated the capability to cross the BBB through passive permeation | – |
| N#Cc1ccc(NC(=O)c2cc(Cl)ccc2O)cc1 [Compound 27, 5-Chloro-N-(4-cyanophenyl)-2-hydroxybenzamide] | safe | cellular safety above 5 μM | demonstrated the capability to cross the BBB through passive permeation | – |
| O=C(Nc1ccccc1)c1cc(Cl)ccc1O [Compound 24, 5-Chloro-2-hydroxy-N-phenylbenzamide] | safe | cellular safety above 5 μM | demonstrated the capability to cross the BBB through passive permeation | Cholesteryl esters levels [2]: induce the formation of cholesteryl esters; BRET signal change (individual data) (MERLIN-HCT116 cells; higher doses, normalized to DMSO (MOCK)): significant BRET increases at higher doses; Extracellular cholesterol uptake capacity (HCT116 cells [3]): significantly increased; Number of MERCs (TEM) ([4]; lymphoblasts from sALS patients): rescued the number of contacts; Lipid droplets in cytosol (TEM) ([4]; sALS lymphoblasts): displayed large lipid droplets in their cytosol; Mitochondrial cristae structure (TEM) ([4]; sALS lymphoblasts): cristae structure was restored; Lipid droplet levels [5]: increase the levels of lipid droplet; Basal OCR (sALS lymphoblasts): successfully restored basal OCR levels; Spare respiratory capacity (sALS lymphoblasts): notable improvement in spare respiratory capacity; Extracellular cholesterol uptake [6]: this change was not observed |
